Data taken from patent US12187709B2 (Genentech, Inc., priority 2021, dated 2025).

Legend:
Cbl-b = Cbl-b (Homo sapiens (Human), UniProt Q13191); assay: Cbl-b LCK Ub TR-FRET assay (Cbl-b Lck HTRF); format: biochemical; conditions: for IC50: Cbl-b LCK Ub TR-FRET; for fold-selectivity (Cbl-b over C-cbl): ratio C-cbl Lck HTRF IC50 / Cbl-b Lck HTRF IC50
Procedure, shortened: (§1)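 Detection reagents added, brief spin, 20 min RT. IC50 fit normalized to no-LCK (low) and DMSO (high) controls.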

c-Cbl = c-Cbl (Homo sapiens (Human), UniProt P22681); assay: C-Cbl LCK Ub TR-FRET assay (C-cbl Lck HTRF); format: biochemical
Procedure, shortened: as §1

[1] = molecular target: Human Cbl-b (residues 40-426) (Homo sapiens (Human), UniProt Q13191); assay: Cbl-b SPR assay; format: binding; conditions: for Fold of selectivity: C-cbl SPR Kd vs Cbl-b SPR Kd; for Kd: SPR, 20° C.
Procedure, shortened: (§2)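 Where a chaser compound was used, % compound bound was calculated as (1−(RUT/RUT0))*100 relative to a prior chaser injection and fitted to a single exponential for kd. The single cycle titration (max 500 nM) was then fitted with kd held fixed.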

c-Cbl (residues 47-435) = c-Cbl (residues 47-435) (Homo sapiens (Human), UniProt P22681); assay: c-Cbl SPR assay; format: binding; conditions: 20° C.
Procedure, shortened: as §2

Sequence of Human Cbl-b (residues 40-426) (Q13191 40-426): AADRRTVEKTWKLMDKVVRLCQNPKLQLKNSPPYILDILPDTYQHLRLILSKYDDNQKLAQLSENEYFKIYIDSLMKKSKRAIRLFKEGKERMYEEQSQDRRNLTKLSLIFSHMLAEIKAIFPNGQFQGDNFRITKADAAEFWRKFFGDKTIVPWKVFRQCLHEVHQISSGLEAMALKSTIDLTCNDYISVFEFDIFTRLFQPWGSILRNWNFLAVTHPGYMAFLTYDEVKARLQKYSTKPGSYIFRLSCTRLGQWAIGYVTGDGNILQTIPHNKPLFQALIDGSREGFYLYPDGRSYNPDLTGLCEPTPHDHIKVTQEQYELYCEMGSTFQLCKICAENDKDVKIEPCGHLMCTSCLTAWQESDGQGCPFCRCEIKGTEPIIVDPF
Sequence of Cbl-b (Q13191 40-426): as above
Sequence of c-Cbl (P22681 47-435): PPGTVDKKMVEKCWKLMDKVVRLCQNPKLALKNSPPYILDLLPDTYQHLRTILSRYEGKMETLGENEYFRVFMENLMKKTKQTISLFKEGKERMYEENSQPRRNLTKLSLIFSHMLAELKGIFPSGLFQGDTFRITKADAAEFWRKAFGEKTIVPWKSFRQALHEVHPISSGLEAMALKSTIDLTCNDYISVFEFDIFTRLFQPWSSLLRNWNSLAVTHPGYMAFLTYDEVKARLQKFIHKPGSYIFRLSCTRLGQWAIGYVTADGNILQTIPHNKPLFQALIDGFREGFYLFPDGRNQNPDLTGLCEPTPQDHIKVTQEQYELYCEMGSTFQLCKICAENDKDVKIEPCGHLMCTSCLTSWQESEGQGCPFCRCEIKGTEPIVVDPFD
Sequence of c-Cbl (residues 47-435) (P22681 47-435): as above

IC50 (Cbl-b) [µM] | fold-selectivity (Cbl-b over C-cbl) (Cbl-b) [x] | IC50 (c-Cbl) [µM] | Fold of selectivity [1] [×] | Kd [1] [µM] | Kd (c-Cbl (residues 47-435)) [µM] | SMILES
0.009 | 1.3 | 0.012 | 4.7 | 0.0015 | 0.0067 | CCNc1cc(N2Cc3c(cc(CNC4(C)CCC4)cc3C(F)(F)F)C2=O)cc([C@]2(c3nncn3C)C[C@H](OC)C2)c1 [Compound 210, 2-(3-(ethylamino)-5-((1r,3r)-3-methoxy-1-(4-methyl-4H-1,2,4-triazol-3-yl)cyclobutyl)phenyl)-6-(((1-methylcyclobutyl)amino)methyl)-4-(trifluoromethyl)isoindolin-1-one]
0.015 | 4.0 | 0.06 | 14 | 0.0035 | 0.049 | CO[C@H]1C[C@](c2cc(NC3CCC3)cc(N3Cc4c(cc(CNC5(C)CCC5)cc4C(F)(F)F)C3=O)c2)(c2nncn2C)C1 [Compound 211, 2-(3-(cyclobutylamino)-5-((1r,3r)-3-methoxy-1-(4-methyl-4H-1,2,4-triazol-3-yl)cyclobutyl)phenyl)-6-(((1-methylcyclobutyl)amino)methyl)-4-(trifluoromethyl)isoindolin-1-one]
0.15 | 2.6 | 0.39 | 4.8 | 0.11 | 0.53 | CO[C@H]1C[C@](c2cc(OC3CCCC3)cc(N3Cc4c(cc(CNC5(C)CCC5)cc4C(F)(F)F)C3=O)c2)(c2nncn2C)C1 [Compound 212, 2-(3-(cyclopentyloxy)-5-((1r,3r)-3-methoxy-1-(4-methyl-4H-1,2,4-triazol-3-yl)cyclobutyl)phenyl)-6-(((1-methylcyclobutyl)amino)methyl)-4-(trifluoromethyl)isoindolin-1-one]
0.24 | 1.9 | 0.44 | 1.8 | 0.16 | 0.3 | C=C[C@@H](C)Oc1cc(N2Cc3c(cc(CNC4(C)CCC4)cc3C(F)(F)F)C2=O)cc([C@]2(c3nncn3C)C[C@@H](OC)C2)c1 [Compound 213, 2-(3-((R)-but-3-en-2-yloxy)-5-((1s,3S)-3-methoxy-1-(4-methyl-4H-1,2,4-triazol-3-yl)cyclobutyl)phenyl)-6-(((1-methylcyclobutyl)amino)methyl)-4-(trifluoromethyl)isoindolin-1-one]
0.0093 | 0.97 | 0.009 | 4.7 | 0.0009 | 0.0042 | CO[C@H]1C[C@](c2cc(NC3CC3)cc(N3Cc4c(cc(CNC5(C)CCC5)cc4C(F)(F)F)C3=O)c2)(c2nncn2C)C1 [Compound 214, 2-(3-(cyclopropylamino)-5-((1r,3r)-3-methoxy-1-(4-methyl-4H-1,2,4-triazol-3-yl)cyclobutyl)phenyl)-6-(((1-methylcyclobutyl)amino)methyl)-4-(trifluoromethyl)isoindolin-1-one]
0.0094 | 1.3 | 0.012 | 4.1 | 0.0017 | 0.007 | CO[C@H]1C[C@](c2cc(NC(C)C)cc(N3Cc4c(cc(CNC5(C)CCC5)cc4C(F)(F)F)C3=O)c2)(c2nncn2C)C1 [Compound 215, 2-(3-(isopropylamino)-5-((1r,3r)-3-methoxy-1-(4-methyl-4H-1,2,4-triazol-3-yl)cyclobutyl)phenyl)-6-(((1-methylcyclobutyl)amino)methyl)-4-(trifluoromethyl)isoindolin-1-one]
0.014 | 4.2 | 0.061 | 11 | 0.0047 | 0.051 | CO[C@H]1C[C@](c2cc(NCCC#N)cc(N3Cc4c(cc(CNC5(C)CCC5)cc4C(F)(F)F)C3=O)c2)(c2nncn2C)C1 [Compound 216, 3-((3-((1r,3r)-3-methoxy-1-(4-methyl-4H-1,2,4-triazol-3-yl)cyclobutyl)-5-(6-(((1-methylcyclobutyl)amino)methyl)-1-oxo-4-(trifluoromethyl)isoindolin-2-yl)phenyl)amino)propanenitrile]
